Laboratory results from the NIST ThermoML archive (doi:10.1021/je060271a).
Numbers after ± are expanded uncertainties.

Settings: 303.14 K, Liquid, Vibrating tube method

CCCCCCC(=O)OCC(COC(=O)CCCCCC)(COC(=O)CCCCCC)COC(=O)CCCCCC [pentaerythritol tetraheptanoate]
Settings | mass density [kg/m3]
8357.2 kPa | 975.8 ± 1.2
8381 kPa | 975.9 ± 1.2
8405.1 kPa | 976 ± 1.2
8433.4 kPa | 976 ± 1.2
8458.1 kPa | 975.9 ± 1.2
8483.1 kPa | 976.1 ± 1.2
8509.4 kPa | 976 ± 1.2
8533.9 kPa | 976.1 ± 1.2
8563.4 kPa | 976 ± 1.2
8587.9 kPa | 976.2 ± 1.2
8617.9 kPa | 976 ± 1.2
8643.4 kPa | 976.1 ± 1.2
8668.9 kPa | 976.1 ± 1.2
8700 kPa | 976.2 ± 1.2
8725.8 kPa | 976.1 ± 1.2
8751.7 kPa | 976.1 ± 1.2
8777.7 kPa | 976.2 ± 1.2
8810 kPa | 976.2 ± 1.2
8838.3 kPa | 976.2 ± 1.2
8865.8 kPa | 976.3 ± 1.2
8892.5 kPa | 976.1 ± 1.2
8925.3 kPa | 976.3 ± 1.2
8952.3 kPa | 976.3 ± 1.2
8979 kPa | 976.3 ± 1.2
9006.6 kPa | 976.4 ± 1.2
9039.6 kPa | 976.3 ± 1.2
9067.1 kPa | 976.3 ± 1.2
9100.6 kPa | 976.4 ± 1.2
9129 kPa | 976.4 ± 1.2
9157.8 kPa | 976.5 ± 1.2
9191.8 kPa | 976.5 ± 1.2
9221.4 kPa | 976.5 ± 1.2
9250.2 kPa | 976.4 ± 1.2
9279.1 kPa | 976.4 ± 1.2
9315 kPa | 976.4 ± 1.2
9344.1 kPa | 976.6 ± 1.2
9374.1 kPa | 976.5 ± 1.2
9409.9 kPa | 976.5 ± 1.2
9439.9 kPa | 976.6 ± 1.2
9476.4 kPa | 976.6 ± 1.2
9507.3 kPa | 976.7 ± 1.2
9537.9 kPa | 976.6 ± 1.2
9575 kPa | 976.6 ± 1.2
9606.3 kPa | 976.8 ± 1.2
9638.6 kPa | 976.8 ± 1.2
9670.4 kPa | 976.7 ± 1.2
9708.9 kPa | 976.7 ± 1.2
9741.1 kPa | 976.9 ± 1.2
9780.3 kPa | 976.8 ± 1.2
9813.2 kPa | 976.9 ± 1.2
9846 kPa | 976.7 ± 1.2
9879 kPa | 976.9 ± 1.2
9918.8 kPa | 976.9 ± 1.2
9952.1 kPa | 976.9 ± 1.2
9992 kPa | 977 ± 1.2
10026 kPa | 976.8 ± 1.2
10061 kPa | 976.9 ± 1.2
10103 kPa | 977.1 ± 1.2
10139 kPa | 977 ± 1.2
10174 kPa | 977 ± 1.2
10209 kPa | 977.2 ± 1.2
10252 kPa | 977.1 ± 1.2
10288 kPa | 977 ± 1.2
10325 kPa | 977.2 ± 1.2
10369 kPa | 977.2 ± 1.2
10405 kPa | 977.1 ± 1.2
10449 kPa | 977.2 ± 1.2
10486 kPa | 977.2 ± 1.2
10525 kPa | 977.2 ± 1.2
10571 kPa | 977.3 ± 1.2
10610 kPa | 977.3 ± 1.2
10649 kPa | 977.3 ± 1.2
10688 kPa | 977.4 ± 1.2
10736 kPa | 977.4 ± 1.2
10775 kPa | 977.3 ± 1.2
10823 kPa | 977.4 ± 1.2
10864 kPa | 977.4 ± 1.2
10906 kPa | 977.6 ± 1.2
10949 kPa | 977.4 ± 1.2
11001 kPa | 977.6 ± 1.2
11045 kPa | 977.5 ± 1.2
11086 kPa | 977.5 ± 1.2
11124 kPa | 977.6 ± 1.2
11150 kPa | 977.6 ± 1.2
11180 kPa | 977.6 ± 1.2
11206 kPa | 977.7 ± 1.2
11232 kPa | 977.6 ± 1.2
11290 kPa | 977.6 ± 1.2
11316 kPa | 977.6 ± 1.2
11343 kPa | 977.8 ± 1.2
11375 kPa | 977.6 ± 1.2
11402 kPa | 977.7 ± 1.2
11490 kPa | 977.7 ± 1.2
11519 kPa | 977.9 ± 1.2
11574 kPa | 977.9 ± 1.2
11609 kPa | 978 ± 1.2
11637 kPa | 977.8 ± 1.2
11668 kPa | 977.9 ± 1.2
11691 kPa | 977.8 ± 1.2
11715 kPa | 977.9 ± 1.2
11767 kPa | 978.1 ± 1.2
11791 kPa | 978 ± 1.2
11816 kPa | 978 ± 1.2
11847 kPa | 978 ± 1.2
11871 kPa | 977.9 ± 1.2
11896 kPa | 978.1 ± 1.2
11920 kPa | 978.1 ± 1.2
11950 kPa | 978 ± 1.2
11975 kPa | 978.1 ± 1.2
12000 kPa | 978.2 ± 1.2
12031 kPa | 978.2 ± 1.2
12057 kPa | 978 ± 1.2
12083 kPa | 978.2 ± 1.2
12110 kPa | 978.1 ± 1.2
12130 kPa | 978.2 ± 1.2
12151 kPa | 978.2 ± 1.2
12176 kPa | 978.3 ± 1.2
12197 kPa | 978.3 ± 1.2
12218 kPa | 978.2 ± 1.2
12240 kPa | 978.3 ± 1.2
12266 kPa | 978.3 ± 1.2
12285 kPa | 978.3 ± 1.2
12300 kPa | 978.3 ± 1.2
12304 kPa | 978.3 ± 1.2
12305 kPa | 978.4 ± 1.2
12331 kPa | 978.3 ± 1.2
12497 kPa | 978.4 ± 1.2
12525 kPa | 978.5 ± 1.2
12546 kPa | 978.5 ± 1.2
12565 kPa | 978.5 ± 1.2
12583 kPa | 978.5 ± 1.2
12606 kPa | 978.4 ± 1.2
12624 kPa | 978.5 ± 1.2
12646 kPa | 978.5 ± 1.2
12665 kPa | 978.5 ± 1.2
12684 kPa | 978.4 ± 1.2
12707 kPa | 978.5 ± 1.2
12725 kPa | 978.6 ± 1.2
12748 kPa | 978.5 ± 1.2
12768 kPa | 978.7 ± 1.2
12787 kPa | 978.5 ± 1.2
12806 kPa | 978.5 ± 1.2
12829 kPa | 978.6 ± 1.2
12849 kPa | 978.6 ± 1.2
12868 kPa | 978.8 ± 1.2
12887 kPa | 978.6 ± 1.2
12911 kPa | 978.6 ± 1.2
12930 kPa | 978.7 ± 1.2
12950 kPa | 978.7 ± 1.2
12974 kPa | 978.7 ± 1.2
12993 kPa | 978.7 ± 1.2
13017 kPa | 978.8 ± 1.2
13037 kPa | 978.7 ± 1.2
13057 kPa | 978.8 ± 1.2
13081 kPa | 978.8 ± 1.2
13101 kPa | 978.8 ± 1.2
13145 kPa | 978.7 ± 1.2
13166 kPa | 978.8 ± 1.2
13186 kPa | 978.9 ± 1.2
13211 kPa | 978.9 ± 1.2
13231 kPa | 978.9 ± 1.2
13252 kPa | 978.8 ± 1.2
13277 kPa | 978.9 ± 1.2
13298 kPa | 978.9 ± 1.2
13319 kPa | 978.9 ± 1.2
13340 kPa | 978.9 ± 1.2
13366 kPa | 979 ± 1.2
13387 kPa | 978.9 ± 1.2
13408 kPa | 978.9 ± 1.2
13429 kPa | 979.1 ± 1.2
13454 kPa | 979 ± 1.2
13476 kPa | 979 ± 1.2
13501 kPa | 979 ± 1.2
13523 kPa | 979.1 ± 1.2
13544 kPa | 979.1 ± 1.2
13592 kPa | 979 ± 1.2
13615 kPa | 979 ± 1.2
13637 kPa | 979.1 ± 1.2
13660 kPa | 979.1 ± 1.2
13686 kPa | 979.2 ± 1.2
13708 kPa | 979.1 ± 1.2
13730 kPa | 979.1 ± 1.2
13757 kPa | 979.1 ± 1.2
13779 kPa | 979.3 ± 1.2
13802 kPa | 979.2 ± 1.2
13828 kPa | 979.3 ± 1.2
13851 kPa | 979.2 ± 1.2
13949 kPa | 979.3 ± 1.2
13996 kPa | 979.4 ± 1.2
14023 kPa | 979.3 ± 1.2
14047 kPa | 979.3 ± 1.2
14070 kPa | 979.5 ± 1.2
14098 kPa | 979.3 ± 1.2
14121 kPa | 979.4 ± 1.2
14145 kPa | 979.5 ± 1.2
14174 kPa | 979.4 ± 1.2
14198 kPa | 979.4 ± 1.2
14247 kPa | 979.4 ± 1.2
14276 kPa | 979.4 ± 1.2
14300 kPa | 979.4 ± 1.2
14353 kPa | 979.5 ± 1.2
14378 kPa | 979.5 ± 1.2
14402 kPa | 979.5 ± 1.2
14432 kPa | 979.5 ± 1.2
14700 kPa | 979.8 ± 1.2
14725 kPa | 979.9 ± 1.2
14756 kPa | 979.8 ± 1.2
14782 kPa | 979.7 ± 1.2
14808 kPa | 979.7 ± 1.2
15038 kPa | 979.8 ± 1.2
15065 kPa | 980.1 ± 1.2
15092 kPa | 980 ± 1.2
15119 kPa | 979.9 ± 1.2
15152 kPa | 980.1 ± 1.2
15207 kPa | 980 ± 1.2
15241 kPa | 980 ± 1.2
15297 kPa | 980 ± 1.2
15386 kPa | 980.1 ± 1.2
15420 kPa | 980.1 ± 1.2
15448 kPa | 980.2 ± 1.2
15477 kPa | 980.2 ± 1.2
15539 kPa | 980.1 ± 1.2
15568 kPa | 980.2 ± 1.2
15602 kPa | 980.2 ± 1.2
